Measured values as given in patent US10301280B2 (Plexxikon Inc., priority 2012, dated 2019).

Columns and labels:
c-kit kinase = c-kit kinase (Homo sapiens (Human), UniProt P10721); experiment: c-Kit biochemical assay (AlphaScreen); conditions: c-kit biochemical inhibitory activity
Description: Assays for biochemical cell-based activity of c-kit kinase are known in the art, for example, as described in U.S. Pat. Nos. 7,498,342 and 7,846,941, the disclosures of which are hereby incorporated by reference as it relates to such assays. The c-kit (or kinase domain thereof) is an active kinase in AlphaScreen. IC50 values are determined with respect to inhibition of c-Kit kinase activity, where inhibition of phosphorylation of a peptide substrate is measured as a function of compound concentration. Compounds to be tested were dissolved in DMSO to a concentration of 20 mM. These were diluted 30 μl into 120 μl of DMSO (4 mM) and 1 μl was added to an assay plate. These were then serially diluted 1:3 (50 μl to 100 μl DMSO) for a total of 8 points. Plates were prepared such that each kinase reaction is 20 μl in 1× kinase buffer (50 mM HEPES, pH 7.2, 5 mM MgCl2, 5 mM MnCl2, 0.01% NP-40, 0.2% BSA), 5% DMSO and 10 µM ATP. Substrate was 100 nM biotin-(E4Y)3 (Open Source Biotech, Inc.). C-kit kinase was at 0.1 ng per sample. After incubation of the kinase reaction for 1 hour at room temperature, 5 μl of donor beads (Streptavidin coated beads (Perkin Elmer Life Science) final concentration 1 μg/ml) in stop buffer (50 mM EDTA in 1× kinase buffer) was added, the sample was mixed and incubated for 20 minutes at room temperature before adding 5 μl of acceptor beads (PY20 coated beads (Perkin Elmer Life Science) final concentration 1 μg/ml) in stop buffer. The samples were incubated for 60 minutes at room temperature and the signal per well was read on AlphaQuest reader. Phosphorylated substrate results in binding of the PY20 antibody and association of the donor and acceptor beads such that signal correlates with kinase activity. The signal vs. compound concentration was used to determine the IC50.
Compounds were also tested using a similar assay with a 10-fold higher ATP concentration. For these samples, compounds to be tested were dissolved in DMSO to a concentration of 20 mM. These were diluted 30 μl into 120 μl of DMSO (4 mM) and 1 μl was added to an assay plate. These were then serially diluted 1:3 (50 μl to 100 μl DMSO) for a total of 8 points. Plates were prepared such that each kinase reaction is 20 μl in 1× kinase buffer (25 mM HEPES, pH 7.5, 2 mM MgCl2, 2 mM MnCl2, 0.01% Tween-20, 1 mM DTT, and 0.001% BSA), 5% DMSO and 100 µM ATP. Substrate was 30 nM biotin-(E4Y)10 (Upstate Biotech, Cat#12-440). C-kit kinase was at 1 ng per sample. After incubation of the kinase reaction for 1 hour at room temperature, 5 μl of donor beads (Streptavidin coated beads (Perkin Elmer Life Science) final concentration 10 μg/ml) in stop buffer (25 mM HEPES pH 7.5, 100 mM EDTA, 0.3% BSA) was added, the sample was mixed and incubated for 20 minutes at room temperature before adding 5 μl of acceptor beads (PY20 coated beads (Perkin Elmer Life Science) final concentration 10 μg/ml) in stop buffer. The samples were incubated for 60 minutes at room temperature and the signal per well was read on AlphaQuest or Envision reader (Perkin Elmer Life Science). Phosphorylated substrate results in binding of the PY20 antibody and association of the donor and acceptor beads such that signal correlates with kinase activity. The signal vs. compound concentration was used to determine the IC50.
The c-kit enzyme used in the above assay was either obtained from Cell Signaling Technology (Cat. #7754) or was prepared as follows: A plasmid encoding kit (DNA and encoded protein sequences shown below) was engineered using common polymerase chain reaction (PCR) methods. Complementary DNA cloned from various human tissues were purchased from Invitrogen, and these were used as substrates in the PCR reactions. Specific custom synthetic oligonucleotide primers were designed to initiate the PCR product, and also to provide the appropriate restriction enzyme cleavage sites for ligation with the plasmids. […]

[1] = system: BaF3-FL KIT D816V or BaF3-FL KIT V560G/D816V cell line; experiment: Cell-based assays of c-Kit mutant kinase activity (cell growth, ATPlite); conditions: at least one of the c-kit cell assays of Example 26
Procedure, shortened: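 IC50 derived from ATP-content luminescence (ATPlite) after three-day compound exposure at 37° C., 5% CO2. Cells: BaF3 rendered growth-dependent on full-length human KIT D816V or V560G/D816V, 1×10^4 per well, RPMI plus 10% FBS; 8 points, 1:3 steps, maximum 10 μM final, 0.2% DMSO.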

c-kit kinase, sequence (P10721 26-976): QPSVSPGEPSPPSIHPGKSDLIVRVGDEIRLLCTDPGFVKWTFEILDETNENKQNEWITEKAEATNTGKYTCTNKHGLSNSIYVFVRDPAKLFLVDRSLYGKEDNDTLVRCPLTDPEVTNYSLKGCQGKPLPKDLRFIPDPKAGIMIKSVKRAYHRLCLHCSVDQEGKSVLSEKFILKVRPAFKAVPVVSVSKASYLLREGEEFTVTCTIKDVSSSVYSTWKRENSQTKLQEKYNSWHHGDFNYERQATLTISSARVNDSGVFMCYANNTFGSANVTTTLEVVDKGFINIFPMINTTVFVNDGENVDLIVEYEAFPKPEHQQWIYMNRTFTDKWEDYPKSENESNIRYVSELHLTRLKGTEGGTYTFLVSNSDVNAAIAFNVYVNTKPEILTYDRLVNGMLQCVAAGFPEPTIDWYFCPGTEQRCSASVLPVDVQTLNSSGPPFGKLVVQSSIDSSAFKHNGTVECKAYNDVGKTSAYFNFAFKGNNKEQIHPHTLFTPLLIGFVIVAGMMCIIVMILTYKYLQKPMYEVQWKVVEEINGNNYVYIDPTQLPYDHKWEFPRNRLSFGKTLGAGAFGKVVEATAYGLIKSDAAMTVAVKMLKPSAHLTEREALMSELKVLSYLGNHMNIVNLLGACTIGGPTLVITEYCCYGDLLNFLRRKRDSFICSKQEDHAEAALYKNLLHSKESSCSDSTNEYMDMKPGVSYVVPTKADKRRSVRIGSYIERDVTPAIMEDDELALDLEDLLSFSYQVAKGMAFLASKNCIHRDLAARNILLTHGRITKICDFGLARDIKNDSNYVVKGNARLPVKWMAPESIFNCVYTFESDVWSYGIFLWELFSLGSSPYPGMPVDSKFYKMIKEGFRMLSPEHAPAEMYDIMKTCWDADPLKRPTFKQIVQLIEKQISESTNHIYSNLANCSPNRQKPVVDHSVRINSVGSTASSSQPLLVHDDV

Row | SMILES | IC50 (c-kit kinase) | IC50 [1]
1 | Cc1n[nH]c(C(=O)Nc2cnc(Nc3cccc(N4CCOCC4)c3)nc2)c1C [P-2051, 3,4-dimethyl-N-[2-(3-morpholinoanilino)pyrimidin-5-yl]-1H-pyrazole-5-carboxamide] | 0.0001 to 1 µM | < 10 µM
2 | Cc1n[nH]c(C(=O)Nc2cnc3[nH]c(-c4c(C)n[nH]c4C)cc3c2)c1C [P-2167, N-[2-(3,5-dimethyl-1H-pyrazol-4-yl)-1H-pyrrolo[2,3-b]pyridin-5-yl]-3,4-dimethyl-1H-pyrazole-5-carboxamide] | 0.0001 to 1 µM | < 10 µM
3 | Cc1n[nH]c(C(=O)Nc2cnc3[nH]c(C4=CCN(C(=O)N5CCOCC5)CC4)cc3c2)c1C [P-2034, 3,4-dimethyl-N-[2-[1-(morpholine-4-carbonyl)-3,6-dihydro-2H-pyridin-4-yl]-1H-pyrrolo[2,3-b]pyridin-5-yl]-1H-pyrazole-5-carboxamide] | 0.0001 to 1 µM | < 10 µM
4 | Cc1nn(C2CNC2)cc1-c1cc2cc(NC(=O)c3[nH]nc(C)c3C)cnc2[nH]1 [P-2286, N-[2-[1-(azetidin-3-yl)-3-methyl-pyrazol-4-yl]-1H-pyrrolo[2,3-b]pyridin-5-yl]-3,4-dimethyl-1H-pyrazole-5-carboxamide] | 0.0001 to 1 µM | < 10 µM
5 | Cc1n[nH]c(C(=O)Nc2cnc3[nH]c(-c4ccnc(N5CCN(C(=O)CC#N)CC5)c4)cc3c2)c1C [P-2189, N-[2-[2-[4-(2-cyanoacetyl)piperazin-1-yl]-4-pyridyl]-1H-pyrrolo[2,3-b]pyridin-5-yl]-3,4-dimethyl-1H-pyrazole-5-carboxamide] | 0.0001 to 1 µM | < 10 µM
6 | Cc1n[nH]c(C(=O)Nc2cnc3[nH]c(-c4cccc5c4OCC5)cc3c2)c1C [P-2273, N-[2-(2,3-dihydrobenzofuran-7-yl)-1H-pyrrolo[2,3-b]pyridin-5-yl]-3,4-dimethyl-H-pyrazole-5-carboxamide] | 10 to 200 µM | < 10 µM
7 | Cc1n[nH]c(C(=O)Nc2cnc3[nH]c(C4=CCN(S(C)(=O)=O)CC4)cc3c2)c1Cl [P-2057, 4-chloro-3-methyl-N-[2-(1-methylsulfonyl-3,6-dihydro-2H-pyridin-4-yl)-1H-pyrrolo[2,3-b]pyridin-5-yl]-1H-pyrazole-5-carboxamide] | 0.0001 to 1 µM | < 10 µM
8 | Cc1n[nH]c(C(=O)Nc2cnc3[nH]nc(-c4cccc(N5CCN(C(=O)OC(C)(C)C)CC5)c4)c3c2)c1C [P-2162, tert-butyl 4-[3-[5-[(3,4-dimethyl-1H-pyrazole-5-carbonyl)amino]-1H-pyrazolo[3,4-b]pyridin-3-yl]phenyl]piperazine-1-carboxylate] | 0.0001 to 1 µM | < 10 µM
9 | Cc1n[nH]c(C(=O)Nc2cnc3[nH]c(-c4ccc(F)nc4F)cc3c2)c1C [P-2280, N-[2-(2,6-difluoro-3-pyridyl)-1H-pyrrolo[2,3-b]pyridin-5-yl]-3,4-dimethyl-1H-pyrazole-5-carboxamide] | 10 to 200 µM | < 10 µM
10 | Cc1n[nH]c(C(=O)Nc2cnc(Nc3cccc(NS(=O)(=O)c4ccccc4)c3)nc2)c1C [P-2053, N-[2-[3-(benzenesulfonamido)anilino]pyrimidin-5-yl]-3,4-dimethyl-1H-pyrazole-5-carboxamide] | 1 to 10 µM | < 10 µM
11 | Cc1n[nH]c(C(=O)Nc2cnc3[nH]c(-c4ccnc(C(C)C)c4)cc3c2)c1C [P-2163, N-[2-(2-isopropyl-4-pyridyl)-1H-pyrrolo[2,3-b]pyridin-5-yl]-3,4-dimethyl-1H-pyrazole-5-carboxamide] | 0.0001 to 1 µM | < 10 µM
12 | Cc1n[nH]c(C(=O)Nc2cnc3[nH]c(-c4cccc5c4OC(F)(F)O5)cc3c2)c1C [P-2281, N-[2-(2,2-difluoro-1,3-benzodioxol-4-yl)-1H-pyrrolo[2,3-b]pyridin-5-yl]-3,4-dimethyl-1H-pyrazole-5-carboxamide] | 10 to 200 µM | < 10 µM
13 | Cc1n[nH]c(C(=O)Nc2cnc3[nH]c(-c4cccnc4C(F)(F)F)cc3c2)c1C [P-2176, 3,4-dimethyl-N-[2-[2-(trifluoromethyl)-3-pyridyl]-1H-pyrrolo[2,3-b]pyridin-5-yl]-1H-pyrazole-5-carboxamide] | 10 to 200 µM | < 10 µM
14 | O=C(O)c1cccc(C(=O)Nc2cnc3[nH]c(-c4ccccc4)cc3c2)c1 [P-2291, 3-[(2-phenyl-1H-pyrrolo[2,3-b]pyridin-5-yl)carbamoyl]benzoic acid] | 10 to 200 µM | < 10 µM
15 | Cc1n[nH]c(C(=O)Nc2cnc3[nH]c(-c4cccc(C(=O)O)c4C)cc3c2)c1C [P-2297, 3-[5-[(3,4-dimethyl-1H-pyrazole-5-carbonyl)amino]-1H-pyrrolo[2,3-b]pyridin-2-yl]-2-methyl-benzoic acid] | 0.0001 to 1 µM | < 10 µM
16 | Cc1n[nH]c(C(=O)Nc2cnc3[nH]c(-c4ccncc4Cl)cc3c2)c1C [P-2278, N-[2-(3-chloro-4-pyridyl)-H-pyrrolo[2,3-b]pyridin-5-yl]-3,4-dimethyl-1H-pyrazole-5-carboxamide] | 10 to 200 µM | < 10 µM
17 | Cc1cccnc1C(=O)Nc1cnc2[nH]c(-c3ccccc3)cc2c1 [P-2016, 3-methyl-N-(2-phenyl-1H-pyrrolo[2,3-b]pyridin-5-yl)pyridine-2-carboxamide] | 1 to 10 µM | < 10 µM
18 | Cc1n[nH]c(C(=O)Nc2cnc3[nH]c(-c4cnc(N5CCN(C)CC5)nc4)cc3c2)c1C [P-2160, 3,4-dimethyl-N-[2-[2-(4-methylpiperazin-1-yl)pyrimidin-5-yl]-1H-pyrrolo[2,3-b]pyridin-5-yl]-1H-pyrazole-5-carboxamide] | 1 to 10 µM | < 10 µM
19 | Cc1n[nH]c(C(=O)Nc2cnc3[nH]c(-c4ccc(F)c(-c5nn[nH]n5)c4)cc3c2)c1C [P-2174, N-[2-[4-fluoro-3-(2H-tetrazol-5-yl)phenyl]-1H-pyrrolo[2,3-b]pyridin-5-yl]-3,4-dimethyl-1H-pyrazole-5-carboxamide] | 1 to 10 µM | < 10 µM
20 | Cc1n[nH]c(C(=O)Nc2cnc3[nH]c(-c4c(C)nn(C)c4C)cc3c2)c1C [P-2165, 3,4-dimethyl-N-[2-(1,3,5-trimethylpyrazol-4-yl)-1H-pyrrolo[2,3-b]pyridin-5-yl]-1H-pyrazole-5-carboxamide] | 0.0001 to 1 µM | < 10 µM
21 | CCOC(=O)Nc1cccc(Nc2ncc(NC(=O)c3[nH]nc(C)c3C)cn2)c1 [P-2055, ethyl N-[3-[[5-[(3,4-dimethyl-1H-pyrazole-5-carbonyl)amino]pyrimidin-2-yl]amino]phenyl]carbamate] | 1 to 10 µM | < 10 µM
22 | Cc1n[nH]c(C(=O)Nc2cnc3[nH]ccc3c2)c1C [P-2032, 3,4-dimethyl-N-(1H-pyrrolo[2,3-b]pyridin-5-yl)-1H-pyrazole-5-carboxamide] | 10 to 200 µM | < 10 µM
23 | CNC(=O)c1cccc(Nc2ncc(NC(=O)c3[nH]nc(C)c3C)cn2)c1 [P-2054, 3,4-dimethyl-N-[2-[3-(methylcarbamoyl)anilino]pyrimidin-5-yl]-1H-pyrazole-5-carboxamide] | 1 to 10 µM | < 10 µM
24 | Cc1n[nH]c(C(=O)Nc2cnc3[nH]c(-c4ccccc4OC(F)(F)F)cc3c2)c1C [P-2182, 3,4-dimethyl-N-[2-[2-(trifluoromethoxy)phenyl]-1H-pyrrolo[2,3-b]pyridin-5-yl]-1H-pyrazole-5-carboxamide] | 1 to 10 µM | < 10 µM
